The record followed here is ChEMBL document CHEMBL1157123, “First identification of xanthone sulfonamides as potent acyl-CoA:cholesterol acyltransferase (ACAT) inhibitors” (Bioorg Med Chem Lett, 2010).

Calls of active or inactive are those of the source. The rule behind the calls is not given here.

This assay has as its target T1, Sterol O-acyltransferase 1 (Homo sapiens) (UniProt P35610).
T1 sequence (whole entry): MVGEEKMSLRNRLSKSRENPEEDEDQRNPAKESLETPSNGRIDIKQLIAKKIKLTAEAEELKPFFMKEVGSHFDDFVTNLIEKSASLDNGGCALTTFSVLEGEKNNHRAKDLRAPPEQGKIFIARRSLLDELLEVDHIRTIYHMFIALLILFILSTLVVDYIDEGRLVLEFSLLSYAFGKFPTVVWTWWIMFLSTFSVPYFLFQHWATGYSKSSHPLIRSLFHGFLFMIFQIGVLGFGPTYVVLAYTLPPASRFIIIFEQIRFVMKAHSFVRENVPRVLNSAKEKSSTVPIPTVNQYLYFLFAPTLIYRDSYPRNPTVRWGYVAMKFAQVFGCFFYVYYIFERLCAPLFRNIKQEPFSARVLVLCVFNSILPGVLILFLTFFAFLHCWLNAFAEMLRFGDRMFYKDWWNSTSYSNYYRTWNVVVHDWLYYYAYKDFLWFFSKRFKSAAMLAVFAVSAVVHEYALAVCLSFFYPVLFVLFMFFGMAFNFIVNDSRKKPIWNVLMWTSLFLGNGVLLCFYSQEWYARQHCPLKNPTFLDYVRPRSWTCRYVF
In words: Inhibition of ACAT at 10 ug/ml.
`CCCCCCCCCC[Si](C)(C)CCC(=O)NC(Cc1ccc(C)cc1)c1ccccc1` (centres undefined) came in with an inhibition of 55%.
Molecule `CCN(CC)C(=O)C1CCCN(S(=O)(=O)c2c(OC)cc(OC)c3c(=O)c4cc(OC)c(OC)cc4oc23)C1` (centres undefined) yielded an inhibition of 12.6%.
The same measure for `CCOC(=O)C1CCCN(S(=O)(=O)c2c(OC)cc(OC)c3c(=O)c4cc(OC)c(OC)cc4oc23)C1` (centres undefined): 7.99%; for `CNS(=O)(=O)c1c(OC)cc(OC)c2c(=O)c3cc(OC)c(OC)cc3oc12`: “inactive”; for `COC(=O)CNS(=O)(=O)c1c(OC)cc(OC)c2c(=O)c3cc(OC)c(OC)cc3oc12`: 5.13%.
`COc1cc2oc3c(S(=O)(=O)NCC(C)c4ccccc4)c(OC)cc(OC)c3c(=O)c2cc1OC` (centres undefined) registered an inhibition of 10.8%.
In the case of `COc1ccc(CCCN(C)S(=O)(=O)c2c(OC)cc(OC)c3c(=O)c4cc(OC)c(OC)cc4oc23)cc1OC` it was 30.1%.
The molecule `CCOC(=O)CN(C)S(=O)(=O)c1c(OC)cc(OC)c2c(=O)c3cc(OC)c(OC)cc3oc12` showed an inhibition of 16.8%.
Consider `COc1cc2oc3c(S(=O)(=O)N4CCC(N(C)C)C4)c(OC)cc(OC)c3c(=O)c2cc1OC` (centres undefined), for which the inhibition was found to be 21%.
In the case of `COc1cc2oc3c(S(=O)(=O)N4CCN(c5ccccn5)CC4)c(OC)cc(OC)c3c(=O)c2cc1OC` it was 43.6%; in that of `COc1cc2oc3c(S(=O)(=O)NC4CC4)c(OC)cc(OC)c3c(=O)c2cc1OC`, “inactive”; in that of `COc1cc2oc3c(S(=O)(=O)N4CCN(C)CC4)c(OC)cc(OC)c3c(=O)c2cc1OC`, 14.5%.
In the case of `COc1cc2oc3c(S(=O)(=O)NCCc4ccc(C)c(C)c4)c(OC)cc(OC)c3c(=O)c2cc1OC` it was 11.9%; in that of `COc1cc2oc3c(S(=O)(=O)NC(c4ccccc4)c4ccccc4)c(OC)cc(OC)c3c(=O)c2cc1OC`, “inactive”.
`COc1cc2oc3c(S(=O)(=O)N4CCCCC4)c(OC)cc(OC)c3c(=O)c2cc1OC` had an inhibition of 10.5%.
The same measure for `COc1cc2oc3c(S(=O)(=O)N4CCN(c5cccc(C)c5)CC4)c(OC)cc(OC)c3c(=O)c2cc1OC`: 64.8%.
In the case of `COc1cc2oc3c(S(=O)(=O)NOCc4ccccc4)c(OC)cc(OC)c3c(=O)c2cc1OC`, the inhibition turned out to be 16.8%.
In the case of `COc1cc2oc3c(S(=O)(=O)N4CC=C(c5ccccc5)CC4)c(OC)cc(OC)c3c(=O)c2cc1OC` it was 51.3%.
For the molecule `COc1ccc(N2CCN(S(=O)(=O)c3c(OC)cc(OC)c4c(=O)c5cc(OC)c(OC)cc5oc34)CC2)cc1`, the inhibition was determined as 36.9%.
In the case of `CCCNS(=O)(=O)c1c(OC)cc(OC)c2c(=O)c3cc(OC)c(OC)cc3oc12` it was “inactive”; in that of `COc1cc2oc3c(S(=O)(=O)NCc4ccc5ccccc5c4)c(OC)cc(OC)c3c(=O)c2cc1OC`, 25%; in that of `COc1cc2oc3c(S(=O)(=O)N4C[C@@H](C)O[C@@H](C)C4)c(OC)cc(OC)c3c(=O)c2cc1OC`, 8.84%.
For `COc1cc2oc3c(S(=O)(=O)NCc4ccc(F)cc4)c(OC)cc(OC)c3c(=O)c2cc1OC`, the inhibition amounted to 10.2%.
The molecule `COc1cc2oc3c(S(=O)(=O)NCc4cccc(Cl)c4)c(OC)cc(OC)c3c(=O)c2cc1OC` showed an inhibition of 15.8%.
